Laboratory results published in patent EP0327744A1, “Oxytocin and vasopressin antagonists” (Merck & Co., Inc., priority 1988, dated 1989).
Where two headings read alike, the source gives them in different places. Numbered stars: 1 amine (or outer) side, 2 acyl side, 3 side chain; on linkers, the order of the positions; unused ones are H or OH. Square brackets hold non-standard residues; d marks the D form. Peptide text beside a SMILES is read from it. ξ: configuration not given here. ξN(OH)Ile(3ξ) = CCC(C)C(NO)C(=O)O; NMeF = CN[CH](Cc1ccccc1)C(=O)O; X1 = O=C(C1CCCNN1[*:1])[*:2]

What was measured:
[1] = target: T1, Vasopressin-stimulated adenylate cyclase in kidney medulla (V₂) (Rattus norvegicus, UniProt Q00788); experiment: Vasopressin-stimulated adenylate cyclase functional assay in kidney medulla (V₂ antagonism); format: biochemical
T1 construct: Vasopressin-stimulated adenylate cyclase in kidney medulla, therefore, is used as a functional assay; from tissue
T1 sequence (Q00788 whole entry): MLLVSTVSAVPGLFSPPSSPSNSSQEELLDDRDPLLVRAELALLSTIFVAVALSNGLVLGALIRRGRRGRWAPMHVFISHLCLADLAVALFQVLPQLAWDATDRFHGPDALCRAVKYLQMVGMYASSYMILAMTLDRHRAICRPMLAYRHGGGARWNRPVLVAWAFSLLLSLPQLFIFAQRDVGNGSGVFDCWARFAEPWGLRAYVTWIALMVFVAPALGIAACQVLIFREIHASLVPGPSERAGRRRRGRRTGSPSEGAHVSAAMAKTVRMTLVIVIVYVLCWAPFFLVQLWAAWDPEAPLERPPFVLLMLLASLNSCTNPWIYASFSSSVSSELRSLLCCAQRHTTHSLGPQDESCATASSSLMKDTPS
Description: (§1) The table summarizes the in vitro potencies of the various components to compete for ³H-vasopressin binding at two proposed vasopressin receptor subtypes (V₁, V₂), as well as to inhibit vasopressin-stimulated adenylate cyclase activity, a further measure of vasopressin antagonism.
Vasopressin exerts its antidiuretic effects on the kidney through the stimulation of adenylate cyclase activity. Vasopressin-stimulated adenylate cyclase in kidney medulla, therefore, is used as a functional assay to determine the potencies of the various test compounds as V₂-vasopressin antagonists. In this assay, the IC₅₀ values obtained for the various compounds (see Table III) are measures of their potencies to inhibit the vasopressin-stimulated conversion of ATP to cAMP by adenylate cyclase. This method was adapted from Seamon et al., PNAS 78: 3363-3367 (1981).

V₁(pressor)-receptor = target: T2, V₁(pressor)-receptor (Rattus norvegicus, UniProt P30560); experiment: [³H]Arginine Vasopressin Binding Assay, liver membranes (V₁)
T2 construct: crude membrane preparation of rat liver (V₁ receptor); from tissue; host or cells: rat liver, crude membrane preparation
T2 sequence (P30560 whole entry): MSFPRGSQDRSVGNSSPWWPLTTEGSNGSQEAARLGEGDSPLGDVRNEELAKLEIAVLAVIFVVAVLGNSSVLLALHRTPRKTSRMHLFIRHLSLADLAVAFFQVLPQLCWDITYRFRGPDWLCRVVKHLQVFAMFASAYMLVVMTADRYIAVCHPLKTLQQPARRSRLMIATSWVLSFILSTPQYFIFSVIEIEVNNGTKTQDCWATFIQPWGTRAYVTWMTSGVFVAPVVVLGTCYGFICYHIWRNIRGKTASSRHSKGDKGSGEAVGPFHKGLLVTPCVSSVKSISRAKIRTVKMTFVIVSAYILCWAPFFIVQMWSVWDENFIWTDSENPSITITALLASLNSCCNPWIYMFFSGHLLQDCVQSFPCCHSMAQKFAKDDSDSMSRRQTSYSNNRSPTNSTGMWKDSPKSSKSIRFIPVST
Description: as §1
(§2) The [³H]Arginine Vasopressin Binding Assay is an in vitro procedure which was adapted from the method of Guillon et al., Eur. J. Pharmacol. 85: […] (1982). It measures the relative affinity of the various test compounds for vasopressin receptor(s) labelled by [³H]vasopressin. Vasopressin receptors have been divided into two subtypes pharmacologically: the V₁(pressor)-receptor found in liver and vascular smooth muscle and the V₂(antidiuretic)-receptor found in kidney medulla. The binding assay uses a crude membrane preparation of rat liver (V₁ receptor) or kidney medulla (V₂ receptor) which is incubated with [³H]vasopressin in the presence or absence of the test compound. The IC₅₀ values (concentrations to inhibit [³H]vasopressin binding by 50%) for the various compounds (see Table III) are measures of their potencies and are inversely related to their affinities.

[2] = target: T3, V₂(antidiuretic)-receptor (Rattus norvegicus, UniProt Q00788); experiment: [³H]Arginine Vasopressin Binding Assay, kidney medulla membranes (V₂)
T3 construct: crude membrane preparation of rat liver (V₁ receptor) or kidney medulla (V₂ receptor); from tissue; host or cells: rat kidney medulla, crude membrane preparation
T3 sequence (Q00788 whole entry): as the sequence (Q00788 whole entry) above
Description: as §1, §2

oxytocin receptor = target: T4, oxytocin receptor (Rattus norvegicus, UniProt P70536); experiment: [³H]Oxytocin Binding Assay (crude membrane preparation of rat uterus); conditions: inhibition of [³H]oxytocin binding, rat uterus membranes; read-out: IC₅₀ (nM) [³H]OT (uterus)
T4 construct: crude membrane preparation of rat uterus as the source of oxytocin receptors; from tissue; host or cells: rat uterus, crude membrane preparation
T4 sequence (P70536 1-388): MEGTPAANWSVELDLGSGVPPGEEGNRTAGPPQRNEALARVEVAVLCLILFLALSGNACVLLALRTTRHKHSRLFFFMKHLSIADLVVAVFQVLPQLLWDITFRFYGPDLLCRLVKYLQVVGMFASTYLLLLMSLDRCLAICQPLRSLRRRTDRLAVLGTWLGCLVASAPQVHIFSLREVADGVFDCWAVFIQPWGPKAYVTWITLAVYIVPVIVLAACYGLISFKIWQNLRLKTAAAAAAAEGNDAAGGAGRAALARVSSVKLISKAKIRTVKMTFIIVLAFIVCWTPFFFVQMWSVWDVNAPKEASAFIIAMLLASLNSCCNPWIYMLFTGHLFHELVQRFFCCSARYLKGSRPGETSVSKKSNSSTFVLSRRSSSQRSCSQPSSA
Description: Oxytocin receptors have been identified in mammalian uterine tissue through the use of in vitro radioligand binding assays. These receptor binding sites mediate the contractile response of the uterine myometrium to oxytocin. […] The assay uses a crude membrane preparation of rat uterus as the source of oxytocin receptors. […]

[3] = IC₅₀ Values ³H-Arg⁸-Vasopressin Binding Liver (V₁), rat liver membranes, mean ± standard error
[4] = IC₅₀ Values ³H-Arg⁸-Vasopressin Binding Kidney (V₂), rat kidney medulla membranes, mean ± standard error

CC(C)CC1C(=O)N2NCCCC2C(=O)N2NCCCC2C(=O)N(C)C(Cc2ccccc2)C(=O)N2CCCC2C(=O)NC(C(C)C)C(=O)N1O (centres unmarked) [Component B]
IC50 [1]: 62.7 ± 4.6 µM | IC50 (V₁(pressor)-receptor; [3]): 67.3 ± 16.5 µM | IC50 [2, 4]: 35.3 ± 6.1 µM

CCC(C)C1NC(=O)C(Cc2ccccc2)NC(=O)C2CCCN2C(=O)C(Cc2ccccc2)N(C)C(=O)C2CCCNN2C(=O)C2CCCNN2C1=O (centres unmarked) [Example 9] (cyclo([X1][X1][NMeF]PFI); configuration not given here)
IC50 (oxytocin receptor): 170 ± 15 nM

CCC(C)C1NC(=O)C2CCCN2C(=O)C(Cc2ccccc2)N(C)C(=O)C2CCCNN2C(=O)C2CCCNN2C(=O)C(CC(C)C)N(O)C1=O (centres unmarked) [Component D]
IC50 ([1]; kidney medulla, molar IC₅₀ in brackets, based on MW of 700, read-out: IC₅₀ Values AVP-stimulated Ad. Cyclase Kidney (V₂) (converted)): 20 µM | IC50 ([1]; kidney medulla, value in µg/ml (exact MW not known), read-out: IC₅₀ Values AVP-stimulated Ad. Cyclase Kidney (V₂) (converted)): 19.3 µM | IC50 (V₁(pressor)-receptor; rat liver membranes, molar IC₅₀ in brackets, based on MW of 700, read-out: IC₅₀ Values ³H-Arg⁸-Vasopressin Binding Liver (V₁) (converted)): 30 µM | IC50 (V₁(pressor)-receptor; rat liver membranes, value in µg/ml (exact MW not known), read-out: IC₅₀ Values ³H-Arg⁸-Vasopressin Binding Liver (V₁) (converted)): 28.4 µM | IC50 ([2]; rat kidney medulla membranes, molar IC₅₀ in brackets, based on MW of 700, read-out: IC₅₀ Values ³H-Arg⁸-Vasopressin Binding Kidney (V₂) (converted)): 19 µM | IC50 ([2]; rat kidney medulla membranes, value in µg/ml (exact MW not known), read-out: IC₅₀ Values ³H-Arg⁸-Vasopressin Binding Kidney (V₂) (converted)): 18.3 µM

CCC(C)C1C(=O)N2NCCCC2C(=O)N2NCCCC2C(=O)N(C)C(Cc2ccccc2)C(=O)N2CCCC2C(=O)NC(Cc2ccccc2)C(=O)N1O (centres unmarked) [Formula I] (cyclo([ξN(OH)Ile(3ξ)][X1][X1][NMeF]PF); configuration not given here)
IC50 [1]: 10.2 ± 1.1 µM | IC50 (V₁(pressor)-receptor): 11.7 ± 1.7 µM | IC50 (oxytocin receptor): 370 ± 70 nM | IC50 [2]: 9.8 ± 1.7 µM

CC(C)C1C(=O)N2NCCCC2C(=O)N2NCCCC2C(=O)N(C)C(Cc2ccccc2)C(=O)N2CCCC2C(=O)NC(Cc2ccccc2)C(=O)N1O (centres unmarked) [Component A]
IC50 [1]: 19 µM | IC50 (V₁(pressor)-receptor; [3]): 6.8 µM | IC50 [2, 4]: 7.9 µM

CC(C)CC1C(=O)N2NCCCC2C(=O)N2NCCCC2C(=O)N(C)C(Cc2ccccc2)C(=O)N2CCCC2C(=O)NC(Cc2ccccc2)C(=O)N1O (centres unmarked) [Component C]
IC50 ([1]; read-out: IC₅₀ Values AVP-stimulated Ad. Cyclase Kidney (V₂), kidney medulla, molar IC₅₀ in brackets, based on MW of 700): 13 µM | IC50 ([1]; read-out: IC₅₀ Values AVP-stimulated Ad. Cyclase Kidney (V₂), kidney medulla, value in µg/ml (exact MW not known)): 12.1 µM | IC50 (V₁(pressor)-receptor; IC₅₀ Values ³H-Arg⁸-Vasopressin Binding Liver (V₁), rat liver membranes, molar IC₅₀ in brackets, based on MW of 700): 6 µM | IC50 (V₁(pressor)-receptor; IC₅₀ Values ³H-Arg⁸-Vasopressin Binding Liver (V₁), rat liver membranes, value in µg/ml (exact MW not known)): 5.53 µM | IC50 ([2]; IC₅₀ Values ³H-Arg⁸-Vasopressin Binding Kidney (V₂), rat kidney medulla membranes, molar IC₅₀ in brackets, based on MW of 700): 13 µM | IC50 ([2]; IC₅₀ Values ³H-Arg⁸-Vasopressin Binding Kidney (V₂), rat kidney medulla membranes, value in µg/ml (exact MW not known)): 11.9 µM
